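Step 1: Grow cells in 96-well plates. Step 2: Expose to compound for 48 hours at 5 concentrations. Step 3: Interpolate endpoints linearly; if unreached, use highest concentration. GI50 = concentration required for 50% inhibition of growth.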 Calls of active or inactive are those of the source. Cut-off read from the data, not from the text of the source: active = GI50 up to about 1.1 µM and inactive = higher.
Key:
Assay in all cases: NCI tumour cell line growth inhibition, 48 h
SK-MEL-28 = test system: SK-MEL-28
TK-10 = test system: TK-10
NCI-H226 = test system: NCI-H226
SNB-75 = test system: SNB-75
UACC-257 = test system: UACC-257
M14 = test system: M14
SK-MEL-2 = test system: SK-MEL-2
EKVX = test system: EKVX
HT-29 = test system: HT-29
RPMI-8226 = test system: RPMI-8226
IGROV-1 = test system: IGROV-1
OVCAR-5 = test system: OVCAR-5
HCT-116 = test system: HCT-116
HOP-62 = test system: HOP-62
UACC-62 = test system: UACC-62
ACHN = test system: ACHN

Measured: GI50

Cc1ccc(C)c(NC(=O)c2cc(-c3ccc([N+](=O)[O-])cc3)nc(N)n2)c1
inactive: SK-MEL-28 > 100 µM | TK-10 > 100 µM | NCI-H226 > 100 µM | SNB-75 > 100 µM | UACC-257 > 100 µM | M14 > 100 µM | SK-MEL-2 > 100 µM | EKVX > 100 µM | HT-29 > 100 µM | RPMI-8226 > 100 µM | IGROV-1 > 100 µM | OVCAR-5 > 100 µM | HCT-116 > 100 µM | HOP-62 > 100 µM | UACC-62 > 100 µM | ACHN > 100 µM

[N-]=[N+]=CC(=O)C1(C(=O)C=[N+]=[N-])CC1
inactive: SK-MEL-28 > 100 µM | TK-10 > 100 µM | NCI-H226 > 100 µM | SNB-75 > 100 µM | UACC-257 > 100 µM | M14 > 100 µM | SK-MEL-2 > 100 µM | EKVX > 100 µM | HT-29 > 100 µM | IGROV-1 > 100 µM | OVCAR-5 > 100 µM | HCT-116 > 100 µM | HOP-62 > 100 µM | ACHN > 100 µM

CCOC(=O)C(=Cc1ccc(C(=O)OC)cc1)C(=O)OCC
inactive: SK-MEL-28 1.71 µM | TK-10 2.88 µM | NCI-H226 2.08 µM | SNB-75 2.07 µM | M14 1.69 µM | SK-MEL-2 1.75 µM | EKVX 11.1 µM | HT-29 3.21 µM | RPMI-8226 1.37 µM | IGROV-1 3.01 µM | OVCAR-5 7.16 µM | HCT-116 3.33 µM | HOP-62 2.2 µM | UACC-62 2.04 µM | ACHN 1.69 µM

CCOC(=O)C1S/C(=N\c2ccc(Cl)cc2)N=C1C (stereo not given)
inactive: SK-MEL-28 20.5 µM | TK-10 28.4 µM | NCI-H226 25.6 µM | SNB-75 21.3 µM | UACC-257 > 10 µM | SK-MEL-2 22.6 µM | EKVX 21.4 µM | HT-29 17.1 µM | RPMI-8226 27.9 µM | IGROV-1 19.5 µM | OVCAR-5 22.1 µM | HCT-116 16.6 µM | HOP-62 20.2 µM | ACHN 20.5 µM

Nn1c(S)nnc1NNC(=O)C(=O)Nc1cc(Cl)c(Cl)cc1Cl
inactive: SK-MEL-28 > 100 µM | TK-10 > 100 µM | NCI-H226 > 100 µM | SNB-75 15.5 µM | UACC-257 > 100 µM | M14 > 100 µM | EKVX > 100 µM | HT-29 > 100 µM | IGROV-1 > 100 µM | OVCAR-5 > 100 µM | HCT-116 > 100 µM | HOP-62 > 100 µM | UACC-62 > 100 µM | ACHN > 100 µM

CC(C)C1CO[C@]2(C)CCC(=O)N12 (stereo not given in full)
inactive: SK-MEL-28 > 100 µM | TK-10 > 100 µM | NCI-H226 > 100 µM | SNB-75 > 100 µM | UACC-257 > 100 µM | M14 > 100 µM | SK-MEL-2 > 100 µM | EKVX > 100 µM | HT-29 > 100 µM | RPMI-8226 > 100 µM | IGROV-1 > 100 µM | HCT-116 > 100 µM | HOP-62 > 100 µM | UACC-62 > 100 µM | ACHN > 100 µM

COc1ccc2c(CCNS(=O)(=O)c3ccccc3)c(C(C)=O)[nH]c2c1[N+](=O)[O-]
inactive: SK-MEL-28 > 10 µM | NCI-H226 43.3 µM | UACC-257 > 100 µM | M14 > 100 µM | SK-MEL-2 > 100 µM | HT-29 > 100 µM | RPMI-8226 > 100 µM | IGROV-1 > 100 µM | OVCAR-5 > 100 µM | HCT-116 > 100 µM | HOP-62 86.7 µM | UACC-62 48.5 µM | ACHN > 100 µM

Cn1c(=O)c2[nH]cnc2n(CC(N)=O)c1=O
inactive: SK-MEL-28 > 100 µM | TK-10 > 100 µM | SNB-75 > 100 µM | M14 > 100 µM | SK-MEL-2 > 100 µM | EKVX > 100 µM | HT-29 > 100 µM | RPMI-8226 > 100 µM | IGROV-1 > 100 µM | HCT-116 > 100 µM | HOP-62 > 100 µM | UACC-62 > 100 µM | ACHN > 100 µM

Cc1cc(=O)oc2cc(OCc3nc4ccccc4c(=O)n3-c3ccccc3)ccc12
inactive: SK-MEL-28 > 100 µM | TK-10 > 100 µM | NCI-H226 > 100 µM | SNB-75 20.7 µM | M14 > 100 µM | SK-MEL-2 > 100 µM | EKVX > 100 µM | HT-29 > 100 µM | RPMI-8226 > 100 µM | IGROV-1 > 100 µM | OVCAR-5 > 100 µM | HCT-116 > 100 µM | HOP-62 97.7 µM | UACC-62 > 100 µM | ACHN > 100 µM

N/N=C(\CC1OC(=O)c2ccccc21)c1ccco1 (stereo not given)
inactive: SK-MEL-28 > 100 µM | TK-10 > 100 µM | NCI-H226 > 100 µM | SNB-75 > 100 µM | UACC-257 > 100 µM | M14 > 100 µM | SK-MEL-2 > 100 µM | EKVX > 100 µM | HT-29 > 100 µM | IGROV-1 > 100 µM | OVCAR-5 > 100 µM | HCT-116 > 100 µM | UACC-62 > 100 µM | ACHN > 100 µM

CCOc1ccc(NC(=O)/C(Cc2nc3ccccc3nc2O)=N\O)cc1
inactive: SK-MEL-28 > 100 µM | TK-10 > 100 µM | SNB-75 70.1 µM | UACC-257 > 100 µM | M14 > 100 µM | SK-MEL-2 > 100 µM | EKVX 75 µM | RPMI-8226 > 100 µM | IGROV-1 > 100 µM | OVCAR-5 > 100 µM | HCT-116 > 100 µM | HOP-62 > 100 µM | UACC-62 > 100 µM | ACHN > 100 µM

COC(=O)c1ccc(OCc2ccc3oc(=O)c(-c4ccccc4)nc3c2)cc1
inactive: SK-MEL-28 > 100 µM | TK-10 44 µM | NCI-H226 > 100 µM | SNB-75 > 100 µM | UACC-257 > 100 µM | M14 > 100 µM | SK-MEL-2 > 100 µM | EKVX > 100 µM | HT-29 > 100 µM | RPMI-8226 34.9 µM | OVCAR-5 > 100 µM | HCT-116 > 100 µM | HOP-62 > 100 µM | ACHN > 100 µM

COc1ccc(-c2cc(-c3ccccc3)c(C#N)c(=O)[nH]2)cc1
inactive: SK-MEL-28 > 100 µM | TK-10 > 100 µM | NCI-H226 > 100 µM | SNB-75 57.7 µM | UACC-257 > 100 µM | M14 > 100 µM | EKVX > 100 µM | HT-29 > 100 µM | RPMI-8226 > 100 µM | IGROV-1 > 100 µM | OVCAR-5 > 100 µM | HCT-116 > 100 µM | HOP-62 > 100 µM | UACC-62 > 100 µM | ACHN > 100 µM

CCN(CC)CC(C(=O)Nc1c(C)cccc1C)/C(C)=N\NC(=O)C[N+](C)(C)C (stereo not given)
inactive: SK-MEL-28 > 100 µM | TK-10 > 100 µM | NCI-H226 > 100 µM | SNB-75 > 100 µM | UACC-257 > 100 µM | M14 > 100 µM | HT-29 > 100 µM | RPMI-8226 > 100 µM | IGROV-1 > 100 µM | OVCAR-5 > 100 µM | HCT-116 > 100 µM | HOP-62 > 100 µM | UACC-62 > 100 µM | ACHN > 100 µM

Source: ChEMBL document CHEMBL1201862, “PubChem BioAssay data set” (2004)
